According to patent US11471442B2, “Administration of gut-selective JAK3 inhibitor” (THERAVANCE BIOPHARMA R&D IP, LLC, priority 2020, dated 2022):
Read-outs that look alike come from different tables or passages of the source.

Experiments:
[1] = Phase 1 SAD (Part A) plasma and urine pharmacokinetics in healthy subjects; assay type: in vivo, human; settings: for AUC(0-inf) / Cmax / Tmax / half-life: human, plasma; for Tmax: read-out: Tmax, median (min, max); for half-life: read-out: t1/2, mean (SD) (converted)
Procedure: The plasma PK parameters of the compound of formula (I) calculated following single (Part A) or multiple (Parts B) oral doses.
In each cohort, healthy subjects meeting eligibility criteria were sequentially randomized in a 3:1 ratio to receive either the compound of formula (I) or matching placebo. Study drug was administered orally as a single dose on the morning of Day 1 following an overnight fast of at least 9.5 hours. Subjects were dosed in an upright (i.e., seated or standing) position and remained upright for 5 minutes following dosing prior to performing study procedures which require a posture change. Subjects were to remain fasted, except water, until after the 4-hour post-dose assessments were completed and the 4-hour post dose PK sample was collected. PK sampling for the compound of formula (I) in plasma and urine were taken Day 1 pre-dose and for 72 hours post-dose.
For all subjects, blood samples for the determination of plasma concentration of the compound of formula (I) were collected at scheduled time points. Blood samples were analyzed to calculate different plasma PK parameters in both part A and part B.
Urine samples for the determination of concentration of the compound of formula (I) were collected at various posedose intervals only in part A.
For all PK data analyses, the PK analysis set was used. Individual subject and mean plasma drug concentration versus time curves for the compound of formula (I) were presented for each dose group. Summary statistics (mean, standard deviation, coefficient of variation, median, minimum, maximum, geometric mean, geometric coefficient of variation, number of subjects) were calculated for plasma concentrations at each time point for each dose group, and the PK parameters for each dose group. Urine PK parameters were summarized for exploratory purposes.

[2] = target: T1, JAK3 (Homo sapiens, UniProt P52333); experiment: Co-crystal structure with human JAK3; assay type: binding
T1 sequence (P52333 1-1124): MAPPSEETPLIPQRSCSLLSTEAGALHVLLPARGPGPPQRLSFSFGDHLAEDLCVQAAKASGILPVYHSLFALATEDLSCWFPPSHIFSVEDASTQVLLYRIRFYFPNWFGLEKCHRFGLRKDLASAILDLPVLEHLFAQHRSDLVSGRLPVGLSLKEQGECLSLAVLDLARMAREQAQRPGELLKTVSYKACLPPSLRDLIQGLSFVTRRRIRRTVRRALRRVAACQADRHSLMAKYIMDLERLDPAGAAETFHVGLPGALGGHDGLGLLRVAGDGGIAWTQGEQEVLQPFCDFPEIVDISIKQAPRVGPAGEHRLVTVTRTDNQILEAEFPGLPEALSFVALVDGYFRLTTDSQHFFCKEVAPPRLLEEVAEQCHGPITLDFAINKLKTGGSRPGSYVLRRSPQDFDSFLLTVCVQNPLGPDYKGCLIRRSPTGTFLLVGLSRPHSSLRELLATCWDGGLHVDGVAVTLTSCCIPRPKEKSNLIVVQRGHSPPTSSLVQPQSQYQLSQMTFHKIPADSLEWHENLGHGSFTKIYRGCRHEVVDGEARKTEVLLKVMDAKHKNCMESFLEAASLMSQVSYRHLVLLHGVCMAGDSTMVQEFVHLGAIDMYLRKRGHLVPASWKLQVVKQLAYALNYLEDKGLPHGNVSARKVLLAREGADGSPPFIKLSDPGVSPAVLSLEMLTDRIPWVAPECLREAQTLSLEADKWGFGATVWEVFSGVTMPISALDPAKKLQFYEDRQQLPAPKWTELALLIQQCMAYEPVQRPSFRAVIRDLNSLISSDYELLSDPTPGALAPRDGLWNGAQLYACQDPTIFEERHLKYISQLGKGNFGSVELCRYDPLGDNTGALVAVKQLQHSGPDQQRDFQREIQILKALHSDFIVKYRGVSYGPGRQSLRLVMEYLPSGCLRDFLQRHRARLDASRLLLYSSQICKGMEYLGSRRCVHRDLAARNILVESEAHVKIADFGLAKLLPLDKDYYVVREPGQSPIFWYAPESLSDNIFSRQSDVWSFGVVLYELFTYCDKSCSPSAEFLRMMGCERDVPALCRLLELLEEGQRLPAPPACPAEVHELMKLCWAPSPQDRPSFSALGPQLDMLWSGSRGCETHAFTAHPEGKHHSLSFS
From the text: Such covalent binding to JAK3 could be beneficial by providing an extended target engagement which may translate in better efficacy.

[3] = single oral dose 1000 mg, n = 6
[4] = single oral dose 2000 mg, n = 6

For `CN(C)C/C=C/C(=O)N1CC(COc2cc(-c3ccc(O)cc3)cc3[nH]ncc23)C1` [compound of formula (I)], the “dose proportionality of exposure (AUC and Cmax)” value ([1]; across the studied single-dose range) was “slightly less than dose proportional”, the “Urinary excretion, average” value ([1]; all single-dose levels) was < 0.1% and the AUC(0-inf) ([1]; both sexes, oral, part A (SAD), 100 to 2000 mg, read-out: AUC0-inf in the plasma of the subjects (range)) was 2.7 to 172 ng·h/mL. For the same compound, the AUC(0-inf) ([1]; both sexes, oral, part A (SAD), 100 to 2000 mg, read-out: average AUC0-inf) was 8.38 to 96 ng·h/mL, the Cmax ([1]; both sexes, oral, single dose of 2000 mg, read-out: average Cmax) was 10 ng/mL and the AUC(0-inf) ([1]; po, 100 mg, single oral dose 100 mg, n = 6, read-out: AUCinf, mean (SD)) was 8.4 ng·h/mL. For the same compound, the AUC(0-inf) ([1]; po, 300 mg, single oral dose 300 mg, n = 6, read-out: AUCinf, mean (SD)) was 24.6 ng·h/mL, the AUC(0-inf) ([1]; po, 1000 mg, single oral dose 1000 mg, one subject excluded, read-out: AUCinf, mean (SD)) was 47 ng·h/mL and the AUC(0-inf) ([1]; po, 2000 mg, single oral dose 2000 mg, n = 6, read-out: AUCinf, mean (SD)) was 96 ng·h/mL. It also gave a Cmax ([1]; single oral dose 100 mg, n = 6, read-out: Cmax, mean (SD)) of 1.3 ng/mL, a Tmax ([1]; single oral dose 100 mg, n = 6) of 1 h and a half-life ([1]; single oral dose 100 mg, n = 6) of 1050 min. It also gave a Cmax ([1]; single oral dose 300 mg, n = 6, read-out: Cmax, mean (SD)) of 3.4 ng/mL, a Tmax ([1]; single oral dose 300 mg, n = 6) of 1 h and a half-life ([1]; single oral dose 300 mg, n = 6) of 870 min. For the same compound, the Cmax ([1]; single oral dose 1000 mg, n = 6, read-out: Cmax, mean (SD)) was 4.8 ng/mL, the Tmax [1, 3] was 1 h and the half-life ([1]; single oral dose 1000 mg, one subject excluded) was 996 min. For the same compound, the Cmax ([1]; single oral dose 2000 mg, n = 6, read-out: Cmax, mean (SD)) was 10.1 ng/mL, the Tmax [1, 4] was 2 h and the half-life [1, 4] was 996 min. The Plasma concentrations ([1]; single oral doses up to 2000 mg) was < 35 ng/mL, the “fe0-72 (percentage of dose excreted in urine over 0 to 72 hours), mean (SD)” value ([1]; single oral dose 100 mg, n = 6) was 0.10 (0.051) % and the “fe0-72 (percentage of dose excreted in urine over 0 to 72 hours), mean (SD)” value ([1]; single oral dose 300 mg, n = 6) was 0.082 (0.025) %. For the same compound, the “fe0-72 (percentage of dose excreted in urine over 0 to 72 hours), mean (SD)” value [1, 3] was 0.056 (0.025) %, the “fe0-72 (percentage of dose excreted in urine over 0 to 72 hours), mean (SD)” value [1, 4] was 0.063 (0.028) % and the “binding nature to JAK3 (co-crystal structure, covalent bond with Cys909)” value [2] was “irreversible binding”.
